Like-named read-outs stand apart in the source and are kept apart here.
Tests used:
human TRPA1 = biological target: T1, human TRPA1 (Homo sapiens, UniProt O75762, K186N/R3C/R58T); experiment: Measurement of TRPA1 activation activity (intracellular calcium, FLIPR, HEK293 cells stably expressing human TRPA1); format: cell-based; conditions: change of intracellular calcium concentration
T1 construct: expressed in transfected cells; pcDNA3.1(+) vector)
Method: 10 ng of Human brain mRNA (Clontech Co.) was treated with DNase, and then was reverse transcribed using kit for reverse transcription-polymerase chain reaction (RT-PCR) (SUPERSCRIPT First-Strand Synthesis System for RT-PCR; Invitrogen Co.) to synthesize the first strand cDNA. PCR using a hot start method was performed using the first strand cDNA as a template and Taq DNA polymerase (LA Taq DNA polymerase; TAKARA SHUZO). The PCR was performed using oligonucleotides consisting of the nucleotide sequences, represented by sequence number 2 as a sense primer and sequence number 3 as an antisense primer, in which firstly, heat denaturation was performed at 98° C. (1 minute), and then a cycle of 98° C. (15 seconds)/56° C. (30 seconds)/72° C. (5 minutes) was repeated 35 times. As a result, a DNA fragment of about 3.3 kbp was amplified.
The DNA fragment was cloned to pCR-TOPO vector using a cloning kit (TOPO XL PCR Cloning Kit; Invitrogen). The obtained plasmid DNA was digested with restriction enzymes KpnI and HindIII, and then was cloned using plasmid pcDNA 3.1(+)(Invitrogen). In this connection, the plasmid pcDNA 3.1(+) has a promoter sequence derived from cytemegalovirus, and can be used in order to express a protein in animal cells.
The nucleotide sequences of the obtained clones were analyzed using DNA sequencer (ABI3700 DNA Sequencer; Applied Biosystems) by dideoxyterminator method, and the nucleotide sequence represented by sequence number 1 was obtained. Furthermore, when these sequences were translated to amino acid sequences, the amino acid sequence represented by sequence number 1 was obtained.
After constructing the expression vector of the human TRPA1 gene, selection by G418 was performed from the HEK293 cells which temporarily expressed TRPA1 by transfection operation to obtain cells stably expressing TRPA1. The above operation was performed according to known methods (experimental medicine supplementary volume, “Cultivation Cell Experimental Methods for Molecular Biology Study” published by Toshio Kuroki, Namho Hue and Kazuhiro Chida, 1995, Yodosha).
In order to measure the change of the intracellular calcium concentration in the cells stably expressing the human TRPA1, the change of the intracellular calcium concentration when a compound to be tested was added was measured using FLIPR (Molecular Device).
In order to measure the change of the intracellular calcium concentration with FLIPR, the following pretreatment was performed. First of all, assay buffer was prepared which was for adding fluorescent pigment Fluo4-AM (DOJIN) to the cells or washing the cells just before performing FLIPR assay. To a solution (hereinafter, HBSS/HEPES solution) where 20 mL of 1M HEPES (pH 7.4; Invitrogen) was added to 1000 mL of a physiological saline buffer (Hank's Balanced Salt Solution; HBSS) (Invitrogen), was added 10 mL of a solution where 710 mg of probenecid (Sigma) was dissolved into 5 mL of 1M aqueous NaOH solution and 5 mL of HBSS/HEPES solution was further added and mixed, and the assay buffer was thus prepared. Then, 50 μg of Fluo4-AM was dissolved into 22 μL of DMSO (DOJIN), the same amount of 20% pluronic acid (Molecular Probes) was added thereto and mixed, and the mixture was added to the 10.6 mL of the assay buffer where 105 μL of fetal bovine serum was added, to prepare a fluorescent pigment solution. The medium of the cells stably expressing TRPA1 was removed, 100 μL per well of the fluorescent pigment solution was dispensed immediately, followed by cultivation in a CO2 cultivator for 1 hour, and the fluorescent pigment was soaked in the cells. The cells after cultivation were washed using the assay buffer, followed by being set in FLIPR. Furthermore, a test sample, which was added to the cells stably expressing TRPA1, was prepared by using the assay buffer, and at the same time, was set in FLIPR. […]

RIN14B cells = experiment: Measurement of 5-HT secretion from RIN14B; format: cell-based; conditions: 20 minutes at 37° C., relative to 300 μM allyl isothiocyanate = 100%, HBSS only = 0%
Method: In order to investigate whether TRPA1 is related to 5-HT release, 5-HT secretion promotion from RIN14B by a compound to be tested was measured.
The RIN14B cells cultivated in a petri dish were scraped using Phosphate buffered saline (PBS) containing 1 mM EDTA, distributed into 24 well plates, and cultivated for 2 days. As a medium, a medium in which 10% fetal bovine serum (ICN), 100 U/mL penicillin, and 100 μg/mL streptomycin was added to RPMI1640 (Invitrogen), was used. The cells were washed once with HBSS (Invitrogen) and added with 0.1% BSA and 10 μM fluoxetine (TOCRIS Co.), followed by dilution with the above HBSS, the prepared compound to be tested was added to RIN14B cells, followed by cultivation at 37° C., under 5% CO2 condition for 20 minutes. After cultivation, supernatant of cells was recovered, followed by freeze preservation. The content of 5-HT in the supernatant was measured by a commercial serotonin immunoassay kit (Beckman). 5-HT release promotion activation value (%) was evaluated as a relative value when the 5-HT release promotion value by 300 μM of allyl isothiocyanate was defined as 100%, and the 5-HT release promotion value by HBSS for dilution only was defined as 0%.

[1] = system: delay of discharging time induced by loperamide in mice; experiment: Loperamide induced constipation model (glass bead discharging time); format: in vivo; conditions: Mus musculus, read-out: ED50 (amount which suppresses 50% of the delay of discharging time induced by loperamide)
Method: It has been known that loperamide as a μ opioid receptor agonist causes convulsive contraction in intestinal tracts. Thus, a delay in the intestinal transport ability due to loperamide is thought as a constipation IBS model.
Mice (Slc:ddY, five-week old, male) fasted from the previous evening of the experiment. On the day of the experiment, the mice were acclimatized to cages for measurement for 1 hour or more, and 0.3 mg/kg of loperamide was administered subcutaneously. After 30 minutes, a compound to be tested was administered orally, ether anesthesia was applied to the mice immediately thereafter, glass beads having diameter of 3 mm were inserted to 2 cm from anus. The mice were returned to the cages for measurement, and the time from waking to discharging of the glass beads was measured. Furthermore, the compound to be tested was dissolved into 10% DMSO, 10% cremophor, and 80% distillated water.
As a result, it has been recognized that there was a delay in the beads discharging time of the loperamide administration group (vehicle group) in comparison with the loperamide non-administration group (control group).
ED50 values (amount of the compound to be tested which suppresses 50% of the delay of discharging time induced by loperamide) of some of the compounds of the formula (I) are shown in Table 3. In this connection, comparative compound 1 is the same compound as comparative compound 1 in Test Example 4.

gastric emptying of rats = experiment: Activity to gastric emptying of TRPA1 agonist (phenol red, rats); format: in vivo; conditions: Rattus norvegicus, read-out: ED50 (amount which suppresses 50% of gastric emptying)
Excerpt: When EC cell is stimulated by content of a gastrointestinal tract, 5-HT is secreted. The secreted 5-HT promotes the secretion or motility through a 5-HT receptor present in intestinal nerve plexus or gastrointestinal smooth muscle. The secreted 5-HT is instantly taken into a cell by its specific transporter, and is metabolized by […]. Thus, while it is considerably difficult to directly measure the secreted 5-HT concentration, it has been known that gastric emptying is delayed as a physiological activity through 5-HT in rodents. In order to verify in vivo activity through 5-HT of the compound to be tested, activity to gastric emptying of rats by various TRPA1 agonists was studied.
In the experiment, male wistar rats (body weight 290 to 360 g) were used. The animals were purchased from Japan SLC (Shizuoka). The animals were allowed to drink water freely under a constitutive environment.
5 minutes after the medicine was orally administered, 0.05% phenol red solution (1.5 mL) was orally administered. After 15 minutes, rats were put painlessly to death by cervical vertebral dislocation, their stomachs were exenterated, and phenol red was eluted with 0.1M aqueous NaOH solution (5 mL) from the exenterated stomachs. 20% aqueous trichloroacetic acid solution (0.1 mL) was added to the NaOH solution (0.5 mL), followed by stirring and centrifugation at 15,000 rpm, at 4° C., for 10 minutes. 0.5M aqueous NaOH solution (0.2 mL) was added to the supernatant (0.05 mL), followed by stirring, and absorbance at 560 nm was measured using an absorption spectrometer (spectrometer spectramax M2; Molecular Devices, CA, USA).
A gastric emptying was calculated by the following calculating formula.
Gastric emptying (%)=100−(A/B)×100
A: amount of phenol red remaining in stomach
B: amount of phenol red remaining in stomach just after administering phenol red
ED50 values (amount of the compound to be tested which suppresses 50% of gastric emptying, with respect to the control animals without administering the compound to be tested) of some of the compounds of the formula (I) are shown in Table 2. In this connection, comparative compound 1 and comparative compound 2 are (3E)-1-methyl-3-(2-oxopropyridene)-1,3-dihydro-2H-indol-2-one, and (3E)-3-(2-oxopropyridene)-1-prop-2-in-1-yl-1,3-dihydro-2H-indol-2-one described in Non Patent Document 4 above, and has the following chemical structures, respectively.

Cytochrome P450(2D6) = Cytochrome P450(2D6) (Homo sapiens, UniProt P10635); experiment: Cytochrome P450(2D6) enzyme inhibition test; format: in vitro ADME; conditions: CYP2D6, fluorescent substrate 1.5 μmol/L, 37° C., 20 minutes
Sequence of Cytochrome P450(2D6) (P10635 whole entry): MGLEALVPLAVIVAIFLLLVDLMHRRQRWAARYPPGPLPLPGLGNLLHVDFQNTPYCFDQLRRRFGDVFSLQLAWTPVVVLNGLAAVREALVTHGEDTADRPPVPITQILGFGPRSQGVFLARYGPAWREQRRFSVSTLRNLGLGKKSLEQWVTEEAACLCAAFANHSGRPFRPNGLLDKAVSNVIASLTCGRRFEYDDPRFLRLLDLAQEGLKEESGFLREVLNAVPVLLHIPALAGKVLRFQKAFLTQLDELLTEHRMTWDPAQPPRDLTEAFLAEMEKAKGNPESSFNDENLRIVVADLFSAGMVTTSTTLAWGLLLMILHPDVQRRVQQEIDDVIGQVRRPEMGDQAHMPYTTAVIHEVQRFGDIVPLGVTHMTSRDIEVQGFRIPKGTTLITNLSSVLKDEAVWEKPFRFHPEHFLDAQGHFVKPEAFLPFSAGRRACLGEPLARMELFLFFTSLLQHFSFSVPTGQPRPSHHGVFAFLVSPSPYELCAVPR
Method: The experiment was performed in accordance with the method of Crespi et al. (Analytical Biochemistry, 248, 188-190, 1997).
As a substrate, 3-[2-(N,N-diethyl-N-methylamino)ethyl]-7-methoxy-4-methyl coumarine (1.5 μmol/L) a compound to be tested (3.1×10^−7 to 2×10^−5 M) and an enzyme (2.5×10^−8 M) were incubated at 37° C. for 20 minutes in total of […] of 100 mM phosphorous buffer (pH=7.4) including 8.2 mM NADP+, 0.41 mM glucose-6-phosphate, 0.41 mM MgCl2 and 0.4 Units/mL glucose-6-phosphate dehydrogenase, using 96 well plates. Then, 0.5 M aqueous 2-amino-2-hydroxymethyl-1,3-propandiol solution containing 80% acetonitrile was added to stop the reaction, fluorescence intensity (excitation wavelength; 390 nm, fluorescent wavelength; 460 nm) was measured with a fluorescent plate reader. An inhibition ratio was calculated with the following formula, and the test compound concentration when the inhibition ratio is 50% (IC50) was obtained.
C1: fluorescence intensity in the presence of the test compound and enzyme at know concentrations, and the substrate
C0: fluorescence intensity in the presence of the enzyme and substrate, without the test compound
B1: fluorescence intensity of blank well

[2] = mice (Slc:ddY, male), 0.3 mg/kg loperamide subcutaneously, compound orally
[3] = male wistar rats, oral administration, versus control animals

T1 sequence (O75762 whole entry R3C/R58T/K186N): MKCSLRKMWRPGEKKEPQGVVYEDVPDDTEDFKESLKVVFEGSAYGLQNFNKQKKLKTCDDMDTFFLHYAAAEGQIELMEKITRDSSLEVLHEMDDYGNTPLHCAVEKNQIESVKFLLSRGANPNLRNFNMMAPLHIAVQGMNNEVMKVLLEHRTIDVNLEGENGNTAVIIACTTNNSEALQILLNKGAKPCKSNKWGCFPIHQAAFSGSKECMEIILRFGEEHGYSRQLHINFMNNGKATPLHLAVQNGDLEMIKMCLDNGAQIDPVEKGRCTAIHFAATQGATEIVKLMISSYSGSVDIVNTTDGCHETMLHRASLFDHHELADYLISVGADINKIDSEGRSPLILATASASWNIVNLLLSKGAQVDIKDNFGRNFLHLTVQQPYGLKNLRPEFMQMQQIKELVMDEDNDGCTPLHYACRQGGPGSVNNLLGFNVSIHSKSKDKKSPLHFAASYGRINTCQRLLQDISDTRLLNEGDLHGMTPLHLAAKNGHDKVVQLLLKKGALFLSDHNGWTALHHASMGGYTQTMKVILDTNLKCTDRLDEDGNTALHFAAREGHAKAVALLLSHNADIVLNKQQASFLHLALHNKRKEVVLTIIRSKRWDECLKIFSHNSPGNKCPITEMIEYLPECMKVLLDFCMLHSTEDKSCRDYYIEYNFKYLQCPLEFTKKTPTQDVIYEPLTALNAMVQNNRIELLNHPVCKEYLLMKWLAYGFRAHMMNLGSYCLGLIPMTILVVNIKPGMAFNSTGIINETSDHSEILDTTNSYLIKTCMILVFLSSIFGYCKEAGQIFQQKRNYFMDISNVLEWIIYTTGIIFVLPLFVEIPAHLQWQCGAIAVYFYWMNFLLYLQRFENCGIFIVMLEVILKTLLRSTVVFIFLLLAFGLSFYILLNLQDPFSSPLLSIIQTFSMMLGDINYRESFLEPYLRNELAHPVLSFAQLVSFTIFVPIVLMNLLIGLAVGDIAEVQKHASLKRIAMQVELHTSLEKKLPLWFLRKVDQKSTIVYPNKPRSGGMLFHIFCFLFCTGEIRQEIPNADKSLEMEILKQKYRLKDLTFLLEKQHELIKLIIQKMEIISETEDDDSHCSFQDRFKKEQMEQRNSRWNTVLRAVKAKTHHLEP

| Structure (SMILES) | EC50 (human TRPA1) [µM] | IC50 (Cytochrome P450(2D6)) [µM] | melting point [°C] | 5-HT release promotion activation value (RIN14B cells) [%] | ED50 [1, 2] [mg/kg] | ED50 (gastric emptying of rats; [3]) [mg/kg] | ED50 [1] [mg/kg] | ED50 (gastric emptying of rats; po) [mg/kg] |
| --- | --- | --- | --- | --- | --- | --- | --- | --- |
| COC(=O)c1cccc(CN2C(=O)/C(=C/C(N)=O)c3ccccc32)c1 [Example 4, methyl 3-{[(3E)-3-(2-amino-2-oxoethylidene)-2-oxo-2,3-dihydro-1H-indol-1-yl]methyl}benzoate] | 1.2 |  |  | 144.6 |  |  |  |  |
| CC(C)CN1C(=O)/C(=C/C(=O)O)c2ccccc21 [Example 13] |  |  |  |  | 0.4 | 0.98 |  |  |
| O=C(O)/C=C1/C(=O)N(CC2CCCCC2)c2ccccc21 [Example 15, (2E)-[1-(cyclohexylmethyl)-2-oxo-1,2-dihydro-3H-indol-3-ylidene]acetic acid] | 4.4 | > 20 | 137 to 139 | 97.4 |  |  |  |  |
| O=C(O)/C=C1/C(=O)N(CC2CCC2)c2ccccc21 [Example 24] |  |  |  |  |  |  | 0.27 | 0.53 |
| CCC(CC)CN1C(=O)/C(=C/C(=O)N2CCOCC2)c2cccc(F)c21 [Example 45, (3E)-1-(2-ethylbutyl)-7-fluoro-3-(2-morpholin-4-yl-2-oxoethylidene)-1,3-dihydro-2H-indol-2-one] | 1.29 | 18 | 102 to 104 |  |  |  |  | 0.57 |
| CC(=O)/C=C1/C(=O)N(C)c2ccccc21 [comparative compound 1, (3E)-1-methyl-3-(2-oxopropyridene)-1,3-dihydro-2H-indol-2-one, reference compound] |  |  |  |  | 2.5 | 2.8 |  |  |

Second part, led by results:

| EC50 (human TRPA1) [µM] | IC50 (Cytochrome P450(2D6)) [µM] | melting point [°C] | Structure (SMILES) | 5-HT release promotion activation value (RIN14B cells) [%] | ED50 [1, 2] [mg/kg] | ED50 (gastric emptying of rats; [3]) [mg/kg] | ED50 [1] [mg/kg] | ED50 (gastric emptying of rats; po) [mg/kg] |
| --- | --- | --- | --- | --- | --- | --- | --- | --- |
| 4.45 | > 20 | 177 to 179 | O=C(O)/C=C1/C(=O)N(Cc2ccccc2)c2ccc(F)cc21 [Example 17, (2E)-(1-benzyl-5-fluoro-2-oxo-1,2-dihydro-3H-indol-3-ylidene)acetic acid] |  |  | 0.31 |  |  |
| 4.63 |  |  | CC(C)CN1C(=O)/C(=C/C(=O)O)c2cc(F)ccc21 [Example 27] | 40.0 |  |  |  |  |
| 0.61 |  | 142 to 144 | CC(C)CN1C(=O)/C(=C/C(=O)O)c2cccc(Cl)c21 [Example 31, (2E)-(7-chloro-1-isobutyl-2-oxo-1,2-dihydro-3H-indol-3-ylidene)acetic acid] |  | 0.24 |  |  |  |
| 1.16 | > 50 | 166 to 168 | O=C(O)/C=C1/C(=O)N(CC2CCC2)c2c(F)cccc21 [Example 32, (2E)-[1-(cyclobutylmethyl)-7-fluoro-2-oxo-1,2-dihydro-3H-indol-3-ylidene]acetic acid] |  |  | 0.21 |  |  |

— patent US20110009379A1, “INDOLINONE COMPOUND” (ASTELLAS PHARMA INC., priority 2008, published 2011)
